In patent US20240307325A1, “COMPOUNDS, COMPOSITIONS, AND METHODS FOR TREATING OR AMELIORATING NONALCOHOLIC FATTY LIVER DISEASE AND RELATED DISEASES OR DISORDERS” (Thomas Jefferson University, priority 2021, published 2024):

Tests used:
[1] = tested on: CEREP Safety 44 panel; test: CEREP Safety 44 panel screen
[2] = Oral bioavailability; conditions: in vivo
[3] = tested on: mouse; test: Tumor xenograft experiments with daily oral dosing: tolerability; type: in vivo; conditions: daily oral dosing extended beyond 4 weeks
[4] = tested on: HFD fed mice; test: High fat diet-induced hepatic steatosis and whitening of brown adipose tissue in mice; type: in vivo; conditions: versus vehicle, H&E staining
Description: FIG. 6A illustrate certain aspects of the study design. […] FIG. 6B show H&E staining images of liver from mice in FIG. 6A. […] Representative images from H&E-stained BAT of mice after an 8-week HFD. Images taken at 14×, scalebar=200 um.
(§1) Refer to FIGS. 5 and 6A-6C, pharmacological inhibition of Sigma1 phenocopy certain aspects of Sigma1 knockdown. […] The small molecule inhibitor IPAG also eliminate oleic acid, cholesterol, and glucose induced lipid droplets by lipophagy (FIG. 5).

[5] = tested on: TNFα; test: Pro-inflammatory cytokine levels in HT-29 cells: TNFα; type: cell-based, human
Description: (§2) The fibrosis associated pro-inflammatory cytokines include soluble IL-6, TNFα, and IL-17, which are contributors to the progression of NAFLD to NASH with fibrosis.

[6] = tested on: IL-17; test: Pro-inflammatory cytokine levels in HT-29 cells: IL-17; type: cell-based, human
Description: as §2

[7] = biological target: Sigma1 (Homo sapiens, UniProt Q99720); conditions: read-out: Ki (binds Sigma1)
Chain of Sigma1 (Q99720 whole entry): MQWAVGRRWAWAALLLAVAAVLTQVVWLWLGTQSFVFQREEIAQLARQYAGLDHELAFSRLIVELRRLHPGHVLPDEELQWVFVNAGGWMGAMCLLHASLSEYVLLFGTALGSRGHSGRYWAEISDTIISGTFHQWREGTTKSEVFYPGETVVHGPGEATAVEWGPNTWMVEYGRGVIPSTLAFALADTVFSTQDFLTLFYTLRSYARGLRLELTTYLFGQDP

[8] = tested on: liver; conditions: even at doses that exceed the concentrations proposed herein; cited from earlier work
[9] = tested on: LNCaP cells; test: DHT-induced lipid droplet formation and accumulation in LNCaP cells (confocal, HCS-LipidTox stain); type: cell-based; conditions: 72 h 1 nM DHT, compound 10 uM for the final 16 hours
Experimental: FIGS. 4A-4B illustrate the finding that Sigma1 (σ1) knockdown by transduction of SIGMAR1 targeted shRNA using a lentiviral vector abrogates lipid droplet (LD) accumulation, in accordance with some embodiments. FIG. 4A: Confocal micrographs of LNCaP cells treated with 72 hours (72 h) with dihydrotestosterone (DHT) to induce the formation and accumulation of LDs. Non-specific Control shRNA was compared to SIGMAR1 transcript selective shRNAs in lentiviral vectors. σ1 shR #4=MISSION/SigmaAldrich clone TRCN0000061010: σ1 shR #5=MISSION/SigmaAldrich clone TRCN0000061008. White boxes indicate areas magnified and shown immediately below. Note nearly complete elimination of LDs. FIG. 4B: Immunoblot confirming knockdown of Sigma1 by lentiviral Sigma1 (σ1) shRNAs. LDs are stained with HCS-LipidTox fluorescent stain in red. Blue DAPI stained nuclei.
FIG. 5 illustrates the finding that pharmacological Sigma1 modulator/inhibitor 1-(4-Iodophenyl)-3-(2-adamantyl)guanidine (IPAG) eliminates lipid droplets (LDs), in accordance with some embodiments. Confocal micrographs of LNCaP cells treated with 72 hours (72 h) with 1 nM dihydrotestosterone (DHT) to induce the formation and accumulation of LDs. In the far right panel, the LNCaP cells were treated with a prototypic Sigma1 selective small molecule compound, IPAG (10 uM), for the final 16 hours of the 72 h DHT treatment period. […]

[10] = tested on: lipid droplets; test: Oleic acid, cholesterol and glucose induced lipid droplets; type: cell-based; conditions: by lipophagy
Description: as §1

Row | Compound | off-target liabilities [1] | oral bioavailability [2] | changes in mouse behavior [3] | changes in mouse body weight [3] | level of whitening of brown adipose tissue ([4]; HFD fed mice (8-week HFD), oral) | level of liver fat ([4]; HFD fed mice, oral (PO 3 days per week)) | level of TNFα [5] | level of IL-17 [6] | Ki [7] | liver toxicity [8] | lipid droplets (LDs) [9] | oleic acid, cholesterol, and glucose induced lipid droplets [10]
1 | N=C(NCCCOc1ccc(F)cc1)Nc1ccc(Cl)cc1 [CT-189, 1-(3-(4-fluorophenoxy)propyl)-3-(4-chlorophenyl)guanidine] | limited off-target liabilities | orally bioavailable | no detectable changes | no detectable changes | significantly reduced | significantly reduced | suppresses levels | suppresses levels | 38 nM | does not induce liver toxicity |  | 
2 | N=C(Nc1ccc(I)cc1)NC1C2CC3CC(C2)CC1C3 (stereo not drawn) [IPAG, 1-(4-Iodophenyl)-3-(2-adamantyl)guanidine] |  |  |  |  |  |  |  |  |  |  | eliminates | eliminate
